Experimental data taken from patent US20250041282A1, “METHOD FOR TREATING INFLAMMATORY PULMONARY DISEASE” (FU JEN CATHOLIC UNIVERSITY, priority 2021, published 2025).

What was measured:
[1] = system: RAW264.7 macrophages; assay: ELISA of cytokines in cell culture media; assay type: cell-based, mouse; conditions: pretreated 30 min, 100 ng/ml LPS 24 h; FIG. 5A/5B
Procedure: RANTES (RayBiotech), IL-1β and IL-6 (eBioscience, San Diego, CA, USA) concentrations in cell culture media and mouse serum were measured using ELISA kits according to the manufacturer's instructions. The plates were measured at […] using an Epoch microplate spectrophotometer (BioTek Instruments, Winooski, VT, USA). The concentrations of RANTES, IL-1β and IL-6 in the samples were determined by standard curves.
For identifying the potential signaling pathways which regulate the secretion of IL-6 and RANTES induced by LPS stimulation, RAW264.7 macrophages were pretreated with various kinase inhibitors for 30 min and then stimulated with/without 100 ng/ml LPS for 24 h; the cell culture media was harvested for ELISA assay. […] (FIG. 6A). To investigate whether FJU-C28 could mediate the transcriptional activity of NF-κB (p65), the translocation of NF-κB p65 was examined in LPS-stimulated macrophages.

[2] = system: RAW264.7 macrophages; assay: Western blotting of LPS-stimulated macrophage lysates; assay type: cell-based, mouse; conditions: LPS-induced RAW264.7; FIG. 6D
From the text: In brief, cell lysate was separated by 10% SDS-PAGE and transferred to a PVDF membrane (Hybond™-P, Amersham, Piscataway, NJ, USA). The blots were probed with anti-p38 (Catalogue Number: 8690P), anti-p-p38 (Thr180/Tyr182; Catalogue Number: 4511P), anti-ERK44/42 (Catalogue Number: 4695P), anti-p-ERK44/42 (Thr202/Tyr204; Catalogue Number: 4370P), anti-JNK (Catalogue Number: 9258P), anti-p-JNK (Thr183/Tyr185; Catalogue Number: 4668P), anti-p65 (Catalogue Number: 8242S), anti-STAT3 (Catalogue Number: 12640S), anti-p-STAT3 (Tyr705; Catalogue Number: 9145S) and anti-RANTES (Catalogue Number: 2989S) antibodies were provided by Cell Signaling Technology, Inc. (Danvers, MA, USA). Anti-Lamin A/C (Catalogue Number: 101127) antibodies were obtained from GeneTex, Inc. (San Antonio, TX, USA). Anti-β-Actin (Catalogue Number: SC-47778) and anti-COX2 (Catalogue Number: SC-1746) antibody was obtained from Santa Cruz Biotechnology, Inc. (Dallas, Texas, USA). The anti-iNOS (Catalog Number: 610329) antibody was obtained from BD transduction Lab. (San Jose, CA, USA). Bound antibodies were visualized by […] staining (Western Lighting Plus ECL; PerkinElmer, Wellesley, MA, USA) with autoradiography using FUJI Medical X-ray film (Fuji Corporation, Kofu, Yamanashi, Japan) or a MultiGel-21 multifunctional imaging system (TOPBIO, New Taipei, Taiwan). The intensity of the western blot bands was quantified by ImageJ software. The quantitative immunoblot data were normalized to the internal control protein and are expressed as the relative ratio of the treatment group to the control. The data represent the mean±S.D. of at least three independent experiments.

SMILES	LPS-induced expression of IL-6 (ELISA), kinase inhibitors [1]	LPS-induced expression of RANTES (ELISA), kinase inhibitors [1]	LPS-induced phosphorylation of STAT3 [2]
Cc1ccc(S(=O)(=O)/C=C/C#N)cc1 [BAY11-7082]	suppressed	suppressed	–
CCOC(=O)C1=CCCC[C@H]1S(=O)(=O)Nc1ccc(F)cc1Cl [CLI-095]	suppressed	suppressed	–
COc1cccc(-c2cc(=O)c3ccccc3o2)c1N [PD98059]	not	–	slightly suppressed
C[S+]([O-])c1ccc(-c2nc(-c3ccncc3)c(-c3ccc(F)cc3)[nH]2)cc1 (stereo not drawn) [SB203580]	suppressed	suppressed	inhibited
